From patent publication EP2742955A1, “Nanoparticles based on bioconjugate of GAG” (Centre National de la Recherche Scientifique, priority 2012, dated 2014)

What was measured:
[1] = Permeation of Fpx across fresh intestinal tissue in Ussing-type chambers; type: in vitro ADME, male Sprague Dawley rats
Protocol: The permeation of Fpx in solution was investigated through the intestinal epithelium at 37°C, in the two directions (mucosal-to-serosal, M-S, absorptive direction and serosal-to-mucosal, S-M, secretory direction) and in presence or not of verapamil, an inhibitor of P-gp (P-glycoprotein) (Fig. 3).
Ussing-type chambers were used to evaluate the permeation of Fpx in fresh intestinal tissues, under the free form and loaded in NPs. For permeation studies non fasting male Sprague Dawley rats weighting 250 to 300 g were used. After sacrificing the rats, jejunum from fresh small intestine was excised and rinsed with chilled physiological solution (isotonic Sorensen's Phosphate buffer solution: 0.2 mM Na2HPO4; 0.2 mM NaH2PO4, H2O with a pH of 6.8). The excised intestine was cut into segments of 2 - 3 cm length and mounted in Ussing chamber (0.75 cm^2 surface area) bathed with Sorensen buffer pH 6.8 in mucosal and serosal sides. The system was maintained at 37°C and continuously oxygenated with O2/CO2 (95% /5%). After equilibration at the temperature of the experiment (15 min), Fpx in solution or loaded in NPs at the concentration of 2 mg/mL were added to the donor compartment. For this purpose, 1.2 mL of Fpx:Sq^+ NPs (at Fpx concentration of 5 mg/mL were diluted in 1.8 mL of Sorensen buffer pH 6.8 prior to the addition to the donor chamber. After 0, 30, 60, 90, 120, 150 and 180 min, 500 µL samples were taken out from the acceptor chambers and replaced with the same volume of fresh transport medium pre-equilibrated at 37°C. The samples were stored at 4°C until analysis. Fpx was quantified by the Azure A assay and Anti-Xa assay. The influence of verapamil was investigated on the intestinal permeation of Fpx in solution and loaded in NPs. For this purpose, verapamil was added to the Sorensen buffer at the concentration of 0.1 mM in the serosal compartment five minutes before the experiment.
Thus, figure 3 is a diagram showing a comparison of the permeation of Fpx across the intestinal tissue under the following experimental conditions: mucosal-to-serosal direction (M-S, continuous lines); serosal-to-mucosal direction (S-M, broken line) and in presence (open symbols) or in absence (filled symbols) of verapamil. Donor chambers contained initially 2 mg/mL of Fpx. Data represent means ± SEM of at least six independent experiments.
Donor chambers contained 2 mg/mL of Fpx and Sq^+ in molar ratio Fpx to Sq^+ 1:6. Data represent means ± SEM of at least six independent experiments.
At last, figure 5 represents a diagram showing net fluxes of Fpx in free form or in Fpx:Sq+ NPs in the presence or in the absence of verapamil when added in serosal side at 180 min. Values are indicated as means SEM at least six experiments. (** p< 0.05) Fpx:Sq^+ NPs vs Fpx:Sq NPs + verapamil; (* p< 0.05) Fpx vs Fpx:Sq^+ NPs; (**** p<0.05) Fpx + verapamil vs Fpx.

[2] = Plasma Fpx concentration (anti-FXa assay) after oral and intravenous administration of aqueous nanoparticulate suspensions; type: in vivo, male Sprague-Dawley rats
Protocol: The anticoagulant activity of Fpx:Sq^+ aqueous nanoparticulate suspensions of example 4 was evaluated in vivo after oral and intravenous (IV) administration in male Sprague-Dawley rats. The following formulations were administrated orally to the rats (n=4) with the help of feeding needle (Harvard Apparatus, France): NPs at the optimized ratio 1:6 at 25 mg/kg (eq. Fpx) and 50 mg/kg (eq. Fpx), Fpx saline solution at 50 mg/kg and isotonic sodium chloride solution as control. The volume of the administrated solution was 1 mL per 100 g of the rat weight. Blood samples were periodically taken from the jugular vein after anesthesia with isoflurane and the plasma concentration of active Fpx was estimated using an anti-FXa assay. Additionally, a saline solution of Fpx and NPs at the optimized ratio 1:6, both at 200 µg/kg (eq. Fpx) were injected intravenously to the rats (n=3) through the tail vein after anesthesia with isoflurane. Blood samples were periodically taken and the plasma concentration of active Fpx was estimated using an anti-FXa assay. […]

In the case of `CO[C@H]1O[C@H](COS(=O)(=O)O)[C@@H](O[C@@H]2O[C@@H](C(=O)O)[C@@H](O[C@H]3O[C@H](COS(=O)(=O)O)[C@@H](O[C@@H]4O[C@H](C(=O)O)[C@@H](O[C@H]5O[C@H](COS(=O)(=O)O)[C@@H](O)[C@H](O)[C@H]5NS(=O)(=O)O)[C@H](O)[C@H]4O)[C@H](OS(=O)(=O)O)[C@H]3NS(=O)(=O)O)[C@H](O)[C@H]2OS(=O)(=O)O)[C@H](O)[C@H]1NS(=O)(=O)O` [Fpx, Fondaparinux], the “permeated Fpx concentration” value ([1]; M-S direction, 120 min, absence of verapamil, donor 2 mg/mL Fpx, 37°C) is reported as 4.5 µg/mL, the “permeated Fpx concentration” value ([1]; M-S direction, 180 min, absence of verapamil, donor 2 mg/mL Fpx, 37°C) is reported as 4.9 µg/mL and the “permeated Fpx concentration” value ([1]; M-S direction, 180 min, verapamil 0.1 mM in the receptor (serosal) compartment) is reported as 12.6 µg/mL. For the same molecule, the “permeated Fpx concentration” value ([1]; S-M direction, 180 min, absence of verapamil, donor 2 mg/mL Fpx, 37°C) was 7.8 µg/mL, the “factor of increase of Fpx fluxes in the presence of verapamil” value ([1]; net fluxes at 180 min, verapamil in serosal side, vs free Fpx) was 4.2 and the Cmax ([2]; male, Sprague-Dawley, rat, plasma, 200 ug/kg, intravenous, 200 µg/kg (eq. Fpx), rats n=3, read-out: maximum plasma concentration (Cmax)) was 160 ng/mL. For the same molecule, the “oral absorption (concentration-time profile vs control group)” value ([2]; oral, saline solution 50 mg/kg) was “not absorbed”.
